Data as given in patent publication US10238641B2, “Materials and methods for diagnosis, prevention and/or treatment of stress disorders and conditions associated with A-beta peptide aggregation” (The United States of America as represented by the …, priority 2008, dated 2019).

Columns and labels:
[1] = tested on: rat cortical cells exposed to Aβ; experiment: Aβ toxicity assay, double calcein-AM and PI staining; format: cell-based; conditions: 5 μM Aβ + 10 μM cotinine, 24 h; Aβ alone 63%
Experimental: Primary cortical embryonic rat neurons were incubated with 5 μM Aβ in the presence or absence of various concentrations cotinine for […] as described (Echeverria et al. (2005)). Cell viability was assessed using the MTT assay (Sigma). As an alternative approach cell viability after exposure to Aβ and cotinine was assessed using the vital dye calcein-AM (green fluorescence) to stain live cells and propidium iodide to stain dead cells. MTT values were normalized to control values considered 100%.
In the double calcein-AM and Propidium iodide (PI) staining, PI binds to nucleic acid and is commonly used for identifying dead cells, since it is impermeable to the membranes of viable cells. Calcein-AM is converted to calcein by live cells, binds to the cellular calcium, and stains the cells by emitting a green fluorescence. […] After incubation cells were washed with PBS and the number of calcein-stained (green) and nuclei stained with PI (red) were analyzed by fluorescence microscopy. More than 600 cells per condition were analyzed in several 20× focal planes and recorded.
To investigate the effect of cotinine on Aβ neurotoxicity, rat cortical cells were grown in conditions that permitted us to obtain a neuron-enriched culture (around 95% neuron and 5% glial cells) for 7-10 days. […] After 24 h, cell survival was assessed by using MTT and PI and calcein-AM cell viability assays.

[2] = tested on: nAChRs; format: cell-based, rat
[3] = tested on: JNK1/2 phosphorylated (pJNK) at Thr183 and Thr185; experiment: BDNF-induced pJNK in primary cortical neurons, Western blot; format: cell-based; conditions: BDNF 100 ng/ml plus cotinine 10 μM, 1 h
Experimental: After 7 days in vitro, cortical neurons were treated with BDNF (100 ng/ml) alone or BDNF plus cotinine (10 μM) for 1 h. After treatments, cells were lysed and whole cell extracts were analyzed for the active forms of JNK and ERKs, pJNK and pERK1/2 by Western blot.

[4] = tested on: fear-induced anxiety in mice; experiment: Elevated plus maze after fear conditioning (fear-induced anxiety); format: in vivo
Experimental: Mice were trained for FC. After the retention test, the mice were tested for anxiety levels in the EPM. The number of entries into the open and closed arms and the exploratory behavior of the mice were determined using a video tracking software that measures movement in each section of the EPM.
To determine the effect of cotinine treatment on the levels of anxiety in the mice after re-exposure to a fear memory, we performed the same EPM test but 24 h after fear conditioning training (shock in the chamber) and immediately after re-exposure to the context (chamber), a reminder of the unconditioned aversive stimulus (the electric shock).

[5] = tested on: sensorimotor abilities in mice; experiment: Rotarod test; format: in vivo; conditions: two weeks of cotinine 1 mg/kg and 5 mg/kg
Experimental: At the end of the behavioral testing for FC, mice treated for two weeks with vehicle, cotinine 1 mg/kg and 5 mg/kg were tested in the rotarod as follows. The rotarod test was performed in an apparatus consisting of a 3 cm in diameter rod that was started at 4 rpm, accelerating up to 40 rpm for 5 min. Mice were tested for the time spent on the rod during each trial for a total of four trails per day. Testing during each trial was finished when the mouse fell off the rod and onto a spring-cushioned lever. The results are expressed as latency to fall in seconds (time spent on the rod) with 8 mice/group/treatment.
To discard a confounding effect of cotinine on learning due to changes in motor coordination and fatigue, we tested mice in the rotarod test after 2 weeks of treatment with vehicle or cotinine at the doses indicated in the figure below.

[6] = biological target: T1, Aβ1-42 peptide (Homo sapiens, UniProt P05067); experiment: AFM analysis of Aβ1-42 fibrillation; format: biochemical
T1 construct: Aβ1-42 peptide was obtained from American Peptide; purchased American Peptide (Sunnyvale, Calif., USA)
Experimental: Since the aggregation behavior of Aβ is dependent on the presence of small concentrations of aggregated forms of the peptide, that are present in many commercial samples, we prepared the Aβ solution by first dissolving the peptide in Hexafluoroisopropanol (HFIP), a protocol that produces a starting solution constituted only of Aβ monomers (Chromy et al. (2003)). Lyophillized Aβ1-42 (American peptide) (1 mg) was dissolved in HFIP, evaporated and re-dissolved in 22 μl of dimethyl sulfoxide (DMSO, St. Louis, Mo.). These peptide preparations were then diluted in PBS buffer pH 7.4 alone or PBS plus cotinine to obtain solutions containing 1 mM Aβ1-42 with and without 2 mM cotinine. Then the Aβ1-42 solutions were incubated for 10 days and the formation of oligomers and fibers was examined.
20 μl aliquots of Aβ solutions were deposited on freshly cleaned and dried silicon wafers (approximately 1 mm thick). After waiting for 10 min, non-adsorbed portions of the samples were washed with de-ionized water (2000 μl). The wet surface of the silicon wafer was then dried using gentle flow of air.
The AFM analysis was performed using an AFM apparatus (AFM, βA multimode SPM, Model no. 920-006-101, Vecco) that permits the acquisition of images using a tapping mode approach. This approach allows intermittent contact of the tip with the sample and minimizes the chances of deformation of the peptide samples. The cantilever and the tip were made up of silicon and the cantilever force constant was approximately 20-100 N/m with the resonance frequency between 200-400 khz. The scan rate was between 1.0 to 1.2 Hz. The analysis of fibrils and oligomers was performed using the software NanoScope Control, version 5.30.
To investigate whether cotinine in addition to Aβ oligomerization also affected fibril formation, we used Atomic force miscroscopy (AFM) to analyze Aβ aggregation. The solutions were prepared dissolving Aβ in HFIP and after evaporation, in PBS alone or containing cotinine and incubated at 37° C. for 3 and 10 days.

[7] = tested on: sensorimotor abilities in mice; experiment: Open field activity test; format: in vivo; conditions: data not shown
[8] = tested on: cortical cells; experiment: Survival of cortical cells exposed to cotinine alone, MTT assay; format: cell-based, rat; conditions: various concentrations of cotinine, 48 hours
Experimental: Cortical cells were subjected to various concentrations of cotinine and cell viability was assessed after 48 hours by MTT assay (see FIG. 1). Statistical significance of the differences in MTT values was assessed by one-way ANOVA with Tukey post-test. ns, not significant difference with (P>0.05).

T1 sequence (P05067 672-713 limits assumed): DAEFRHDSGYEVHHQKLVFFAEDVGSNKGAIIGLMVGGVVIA

What does the source list for `CN1C(=O)CC[C@H]1c1cccnc1` [cotinine]?
cell survival, % of vehicle-treated control cells (PI and calcein-AM) [1]: 83%; neuroprotective actions in presence of nAChR antagonists alpha-Bungarotoxin or mecamylamine [2]: not affected; levels of active JNK1/2 (pJNK) induced by BDNF [3]: decreased the levels of the active forms of JNK1/2; difference in time in the closed arms, untreated compared with cotinine (EPM after FC) ([4]; cotinine 1 mg/kg, p=0.0060): highly significant; time in the open arms, vehicle compared with cotinine (EPM after FC) ([4]; cotinine 1 mg/kg, p=0.0101): significantly less time in the open arms; time exploring, vehicle compared with cotinine (EPM after FC) ([4]; cotinine 1 mg/kg, p=0.0145): significantly less time exploring; time exploring, vehicle compared with cotinine (EPM after FC) ([4]; cotinine 5 mg/kg, p=0.0025): significantly less time exploring; difference in time in the closed arms, untreated compared with cotinine (EPM after FC) ([4]; cotinine 5 mg/kg, p=0.0111): highly significant; time in the open arms, vehicle compared with cotinine (EPM after FC) ([4]; cotinine 5 mg/kg, p=0.0545): no significant differences; sensorimotor abilities, latency to fall (rotarod) [5]: did not affect sensorimotor abilities; effect on Aβ aggregation and fibril length (AFM) ([6]; 1 mM Aβ1-42 + 2 mM cotinine, 10 days 37° C.): reduced Aβ aggregation and the length of Aβ fibrils; average length of Aβ fibrils ([6]; 1 mM Aβ1-42 + 2 mM cotinine, 10 days 37° C., n=23, without cotinine 345±42): 223±36; average diameter of the fibers ([6]; unchanged by presence of cotinine): 22-24 nm; sensorimotor abilities (open field activity test) [7]: no changes in sensorimotor abilities were detected; survival of cortical neurons exposed to cotinine alone [8]: not Affected
